Assay results from patent US12343396B2, “Ultrasound mediated delivery of drugs” (EXACT THERAPEUTICS AS, priority 2013, dated 2025).
Values after ≈ are worked out from the molar mass of the structure shown. Read-outs that look alike come from different tables or passages of the source.

Legend:
[1] = Microscopy scoring of spontaneously and US activated bubbles; type: physicochemical; set-up: key: Score 0 = no or very limited; Score 1 = medium and; Score 2 = high; conditions: oil as C2 microdroplet phase mixed with C1, 37° C.; for Spont. Act. (amount of spontaneously activated bubbles): bubbles >~15 μm; for US Act. (amount of US activated bubbles): insonated 5 s, nominal MI 0.8, 2.25 MHz
Description: 641 mg distearoylphosphateidylcholine (DSPC) and 73 mg 1,2-distearoyl-3-(trimethylammonio) propane chloride (DSTAP) were weighed into a 250 mL round bottom flask and 50 ml chloroform was added. The sample was heated under hot tap water until a clear solution was obtained. The chloroform was removed by evaporation to dryness on a rotary evaporator at 350 mm Hg and 40° C., followed by further drying at 50 mm Hg in desiccator over night. Thereafter, 143 mL water was added and the flask again placed on a rotary evaporator and the lipids were rehydrated by full rotational speed and 80° C. water bath temperature for 25 minutes. The samples were placed in refrigerator over night. The lipid dispersion was transferred to a suitable vial and stored in refrigerator until use.
Emulsions were prepared by transferring aliquots of 1 mL of the cold lipid dispersion to 2 mL chromatography vials. To each of seven vials was added 100 μL of the fluorocarbon oils as detailed in Table 11. The chromatography vials were shaken on a CapMix (Espe, GmbH) for 75 seconds. The vials were immediately cooled in ice, pooled and kept cold until use. Coulter counter analysis was performed to determine the volume concentration of the microdroplets and the emulsions were then diluted with water to 10 μl/mL disperse phase.
C1 (as detailed in E1-2) was reconstituted in 2 mL of water and mixed together with the C2 samples prepared in a 10 ml tube to a ratio of 10:1 and shaken carefully by hand. The mixture was then diluted with 7 mL water. The samples were evaluated for spontaneously activated and US activated bubbles by microscopy in manual version of the methodology described in E1-4. One mL of this solution was transferred to a microscope cell where the temperature was stabilised to 37° C. after 2 minutes. The cell was set up so that US sonication, using an ATL 3-2 transducer with a center frequency of 2.25 MHZ, could be applied to the sample. At 200× magnification the entire cell area was scanned and the content of large (>˜15 μm), spontaneously activated bubbles was semi quantitatively assessed by visual inspection. For each sample, a score in the range of 0 to 2 was given, where 0 designate “no or very few large phase shift bubbles observed”, 1 designate “medium number of large phase shift bubbles observed” and 2 designate “large number of large phase shift bubbles observed”. The sample was then insonated for 5 s at a nominal MI of 0.8 and the content of large, US activated bubbles were counted and scored in the same manner. The results from this study is detailed in Table 11 together with the physicochemical characteristics of the compounds investigated.

[2] = cited from earlier work; for vapour pressure (v.p.): at 20° C.; for Log wsol (water solubility): logarithm of Molar solubility
physchem = conditions: for solubility: organic solvent or mixture; for Miscibility in tCIMe: solvents
Description: As a starting-point for the study on drug loading, a theoretical evaluation of solubility of different solutes (drugs and chromophores for optical imaging) in pFMCP and a range of other oil components was performed. This evaluation was performed using a state-of-the-art software for assessment of solvent-solute compatibility; Hansen solubility parameters, HSPiP v.4 (Steven Abbott TCNF Ltd.). The HSPIP analysis calculates three basic properties relating to compatibility between substances; Polarity, Dispersion and Hydrogen binding and a distance in this three dimensional space between e.g. a solvent and a solute; the Hansen distance (Hd). The closer the solvent and solute are in this space, the (relatively) better the solubility of the solute in the solvent. […] The miscibility between the solvent and the solubility of the solutes in one of the solvents were experimentally determined.
In addition, a 1:1:2 mixture of said three solvents loaded with Ptx was explored. […] C2 with a 1:1:1 mixture of these components was manufactured as detailed below.

Row | Molecule | Spont. Act. (amount of spontaneously activated bubbles) [1] | US Act. (amount of US activated bubbles) [1] | vapour pressure (v.p.) [2] [torr] | Log wsol (water solubility) [2] | other results
1 | 1,1,2,3,3,3-Hexafluoropropyl methyl | 2 | 0 | 418.8 | −2.5 | 
2 | 2,2,3,3,3-Pentafluoropropyl methyl | 1 | 0 | 559.6 | −2.0 | 
3 | C=CC(F)(F)C(F)(F)C(F)(F)C(F)(F)F [1H, 1H,2H-perfluoro-1-hexene] | 1 | 1 | 353.1 | −4.6 | 
4 | FC(F)C(F)(F)C(F)(F)C(F)(F)C(F)(F)C(F)(F)F [1H-perfluorohexane] | 1 | 1 | 238.6 | −5.3 | 
5 | FC(C(F)C(F)(F)C(F)(F)F)C(F)(F)F (stereo not shown) [2H,3H-perfluoropentane] | 1 | 0 | 431.8 | −3.2 | 
6 | CN(C)C/C=C/C(=O)Nc1cc2c(Nc3ccc(F)c(Cl)c3)ncnc2cc1O[C@H]1CCOC1 [Afatinib] |  |  |  |  | solubility (physchem; Solubility in tCIMe): ~100 mg/mL (≈ 206 mM)
7 | CCCCCCCCCCCCCCCCCCN1C(=CC=CC=CC=CC2=[N+](CCCCCCCCCCCCCCCCCC)c3ccccc3C2(C)C)C(C)(C)c2ccccc21.[I-] [DiR] |  |  |  |  | solubility in solvent mixture (physchem; 1:1:1 mixture of pFMCP, ClrFPr and pFMCP): > 10 mg/mL; Solubility in tCIMe (physchem; target molecules): ~50 mg/mL
8 | CC(=O)O[C@@]12CO[C@@H]1C[C@H](O)[C@@]1(C)C(=O)[C@H](O)C3=C(C)[C@@H](OC(=O)[C@H](O)[C@@H](NC(=O)OC(C)(C)C)c4ccccc4)C[C@@](O)([C@@H](OC(=O)c4ccccc4)[C@H]21)C3(C)C [Docetaxel] |  |  |  |  | solubility (physchem; Solubility in tCIMe): ~20 mg/mL (≈ 24.8 mM)
9 | COc1cccc2c1C(=O)c1c(O)c3c(c(O)c1C2=O)C[C@@](O)(C(=O)CO)C[C@@H]3O[C@H]1C[C@H](N)[C@H](O)[C@H](C)O1 [Doxorubicin] |  |  |  |  | solubility (physchem; trichloromethane (tClMe), Solubility in tCIMe, target molecules): ~1 mg/mL (≈ 1.84 mM)
10 | CCS(=O)(=O)Nc1ccc2c(c1)/C(=C(/Nc1ccc(CN3CCCCC3)cc1)c1ccccc1)C(=O)N2 [Hesperadin] |  |  |  |  | solubility (physchem; Solubility in tCIMe): ~7.5 mg/mL (≈ 14.5 mM)
11 | CCN(CC)c1ccc2nc3c4ccccc4c(=O)cc-3oc2c1 [Nile Red] |  |  |  |  | solubility (physchem; Solubility in tCIMe): ~50 mg/mL (≈ 157 mM); solubility (physchem; solubility in solvent mixture): > 5 mg/mL
12 | CC(=O)O[C@H]1C(=O)[C@@]2(C)[C@H]([C@H](OC(=O)c3ccccc3)[C@]3(O)C[C@H](OC(=O)[C@H](O)[C@@H](NC(=O)c4ccccc4)c4ccccc4)C(C)=C1C3(C)C)[C@]1(OC(C)=O)CO[C@@H]1C[C@@H]2O [Paclitaxel] |  |  |  |  | solubility in solvent mixture (physchem): > 50 mg/mL; solubility (physchem; Solubility in tCIMe): ~350 mg/mL (≈ 410 mM); solubility (physchem; solubility in solvent mixture): > 25 mg/mL
13 | FC(F)(F)C(F)(F)C(F)(F)C(F)(F)C(F)(F)C(F)(F)C(F)(F)F [Perfluoroheptane] | 0 | 2 |  |  | 
14 | FC(F)(F)C(F)(F)C(F)(F)C(F)(F)C(F)(F)C(F)(F)F [Perfluorohexane] | 0 | 1 | 359.2 | −6.7 | 
15 | ClCCl [dCIMe, dichloromethane] |  |  |  |  | miscibility in pFMCP (physchem): ~10%; Miscibility in tCIMe (physchem): 100%; Log wsol (water solubility) ([2]; solvents): −0.8
16 | FC(F)(F)C1(F)C(F)(F)C(F)(F)C(F)(F)C1(F)F [pFMCP, perfluoromethyl-cyclopentane] | 0 | 1 |  |  | Miscibility in tCIMe (physchem): ~10%
17 | Methyl-1,1,2,2-tetrafluoroethyl ether | 2 | 0 | 842.4 | −1.4 | 
18 | Perfluorodimethylcyclobutane | 0 | 1 | 579 | −5.7 | 
19 | chlorotrifluoropropane [CltFPr] |  |  |  |  | miscibility in pFMCP, dClMe and tClMe (physchem): completely miscible; Miscibility in tCIMe (physchem): 100%; Log wsol (water solubility) ([2]; solvents): −2.4
20 | dichlorodifluoroethane [dCldFEt] |  |  |  |  | miscibility in pFMCP, dClMe and tClMe (physchem): completely miscible
